Laboratory results as given in patent US20220040236A1, “COMPOSITIONS AND METHODS OF TREATMENT OF VISION LOSS THROUGH GENERATION OF ROD PHOTORECEPTORS FROM MÜLLER GLIAL CELLS” (ICAHN SCHOOL OF MEDICINE AT MOUNT SINAI, priority 2018, published 2022).

How the values were obtained:
Format in all cases: in vivo, mouse
Müller glial cells (MGs) = assay: NMDA-induced MG proliferation, EdU incorporation in retinal flatmount preparations
Experimental: (§1) Adult mice at 4 weeks of age were anesthetized with an intraperitoneal injection of ketamine (50 mg/kg mouse body weight) and xylazine (5 mg/kg mouse body weight). Intravitreal injection was performed using a microsyringe equipped with a 33 gauge needle. The tip of the needle was passed through the sclera, at the equator and next to the dorsal limbus of the eye, into the vitreous cavity. Injection volume is 1 μl per eye for AAVs or other chemicals including NMDA (Acros Organics, 100 mM) and XAV939 (Sigma, 10 μM).
EdU solution (1 ul) was intravitreally injected into the vitreous chamber at the concentration of 1 mg/ml. Analysis of EdU incorporation was performed using Click-iT EdU Kit (Invitrogen, Grand Island, N.Y.). In brief, retinal cryostat sections or flatmount preparations were washed in PBS first for 10 min and then washed twice in PBS containing 3% BSA, followed by permeabilization in PBS containing 0.5% Triton X-100 for 20 min. After washing twice in PBS containing 3% BSA, EdU detection components were resuspended according to manufacturer's instructions and applied directly to retinal samples. The solution for each EdU reaction has a total volume of 250 μl composed of 215 μl 1× Click-iT reaction buffer, 10 μl CuSO4, 0.6 μl Alexa Fluor azide, and 25 μl 1× Reaction buffer additive. After incubation in the reaction solution for 30 minutes at room temperature, samples were washed with PBS and mounted with Fluoromount-G for detection.
To examine MG proliferation induced by neurotoxic injury in the adult mammalian retina, 200 nmol was injected NMDA into the vitreous chamber of the mouse retina at 4 weeks of age. The same dosage of NMDA was previously used to introduce retinal injury leading to MG proliferation in adult rat and mouse retina (Karl et al., Proc Natl Acad Sci USA, 2008, 105:19508-19513; Ooto et al., Proc Natl Acad Sci USA, 2004, 101:13654-13659). Anti-HuC/D immunohistochemistry was used to assay the time course of NMDA-induced cell death in the ganglion cell layer (GCL). […] To assay cell proliferation, 1 μl of 1 mg/ml of EdU, a nucleoside analog of thymidine that is incorporated into DNA during active DNA synthesis, was injected into the vitreous chamber 5 hours before tissue collection at 24, 36, 48, 60, 72, and 96 hours post-NMDA injection. NMDA-induced cell proliferation was quantified by scoring the number of EdU^+ cells/mm^2 in retinal flatmount preparations. A small number (4.7±0.8) of EdU^−1 cells appeared 36 hours post-NMDA injection. The number of EdU^−1 cells continued to increase, reaching 223.3±8.3 and 264.5±8.4 at 48 and 60 hours, respectively, before it was reduced to 5.8±1.1 at 72 hours post-NMDA injection (FIG. 2A). The EdU^−1 cells were also immunoreactive for CyclinD3 and p27^kip1 (FIG. 2B), MG-specific nuclear antigens (Dyer and Cepko, Nat Neurosci. 2000, 3:873-880).
To examine the ability of inhibition of Wnt signaling to suppress NMDA-induced MG proliferation, NMDA was co-injected with XAV939, a selective Wnt signaling antagonist (Huang et al., Nature, 2009, 461:614-620), and the number of EdU^+ cells per mm^2 in retinal flatmount preparations was quantified 60 hours post-injection, when the maximum number of EdU^+ cells were detected (FIG. 2A). […] To assay whether XAV939 treatment affects NMDA-induced retinal damage, the number of HuC/D+ cells was quantified in the GCL at 60 hours post-injection.
Lin28 is a direct transcriptional target of Wnt/β-catenin signaling. […]

Wnt signaling pathway = assay: quantitative PCR of Wnt genes, Wnt antagonists and Wnt target genes after NMDA injury
Experimental: Total RNA was extracted from retinas using TRIzol (Invitrogen, Grand Island, N.Y.) according to the manufacture's protocol. Reverse transcription (RT) was then performed at 42° C. for 2 hours in a volume of 20 μl containing 0.5 μg of oligo(dT), 1×RT buffer, 0.5 mM each deoxyribonucleotide triphosphate, 0.1 mM dithiothreitol, and 200 U of Superscript II reverse transcriptase (Invitrogen, Grand Island, N.Y.). Real-Time quantitative PCR (qPCR) was performed in triplicate with SsoFast™ EvaGreen supermix (Bio-Rad, Hercules, Calif.) using an iCycler real-time PCR detection system (Bio-Rad, Hercules, Calif.). The amplification protocol was 30 seconds at 94° C., 30 seconds at 56° C., and 30 seconds at 72° C., with a signal detection period of 7 seconds at 80° C. A melt curve analysis was performed at the end of the reaction to check the reaction specificity. Results were obtained after normalization to the expression level of the housekeeping gene, B-actin. All experiments were performed at least twice to ensure repeatable results.
To examine whether Wnt signaling is activated by NMDA-induced neurotoxic injury, quantitative PCR was performed to assay the RNA levels of Wnt genes at 3, 6, 12, 18, 24, 36, and 48 hours post-NMDA injection, relative to the PBS injected retina as a control. […] The upregulation of Wnt genes and a concomitant downregulation of WIF-1 and Dkk1 would predict activation of the canonical Wnt/β-catenin signaling pathway. Indeed, 24 hours post-NMDA injection, a 3.4-fold upregulation of CyclinD1 (Ccnd1, FIG. 2D), a target gene of the Wnt signaling pathway (Shtutman et al., Proc Natl Acad Sci USA, 1999, 96:5522-5527; Tetsu and McCormick, Nature, 1999, 398:422-426) and key regulator of the cell cycle progression from the G1 to S phase (Resnitzky et al., Mol Cell Biol. 1994, 14:1669-1679), was detected.

[1] = test system: retinal ganglion cells and amacrine cells; assay: NMDA-induced cell death, anti-HuC/D immunohistochemistry in the ganglion cell layer; conditions: 36 hours post-NMDA injection, 200 nmol NMDA intravitreal
Experimental: as §1
Retinas were fixed with 4% paraformaldehyde in PBS for 30 minutes at room temperature, followed by overnight incubation at 4° C. in PBS containing 30% sucrose. […]
To examine MG proliferation induced by neurotoxic injury in the adult mammalian retina, 200 nmol was injected NMDA into the vitreous chamber of the mouse retina at 4 weeks of age. […] NMDA-induced cell proliferation was quantified by scoring the number of EdU^+ cells/mm^2 in retinal flatmount preparations. […]
To examine the ability of inhibition of Wnt signaling to suppress NMDA-induced MG proliferation, NMDA was co-injected with XAV939, a selective Wnt signaling antagonist (Huang et al., Nature, 2009, 461:614-620), and the number of EdU^+ cells per mm^2 in retinal flatmount preparations was quantified 60 hours post-injection, when the maximum number of EdU^+ cells were detected (FIG. 2A). […]

CN[C@H](CC(=O)O)C(=O)O [NMDA]
number of EdU+ cells/mm^2 (Müller glial cells (MGs); 36 hours post-NMDA injection): 4.7±0.8 cells/mm^2 | number of EdU+ cells/mm^2 (Müller glial cells (MGs); 48 hours post-NMDA injection): 223.3±8.3 cells/mm^2 | number of EdU+ cells/mm^2 (Müller glial cells (MGs); 60 hours post-NMDA injection): 264.5±8.4 cells/mm^2 | number of EdU+ cells/mm^2 (Müller glial cells (MGs); 72 hours post-NMDA injection): 5.8±1.1 cells/mm^2 | RNA levels for Wnt genes (Wnt2b, Wnt8a, Wnt8b, Wnt9a, Wnt10a), upregulation (Wnt signaling pathway; 6-24 hours post-NMDA injection, relative to PBS injected retina): at least 3 fold | RNA levels for WIF-1 (Wnt signaling pathway; 12 hours post-NMDA injection): 1.6±0.2 % of the control | RNA levels for Dkk1 (Wnt signaling pathway; 24 hours post-NMDA injection): 13.2±0.6 % of the control | upregulation of CyclinD1 (Ccnd1) (Wnt signaling pathway; 24 hours post-NMDA injection): 3.4 fold | RNA levels of Lef1 and Axin2 (Wnt signaling pathway; post-NMDA injection): significant upregulation | HuC/D+ cells remaining [1]: ~45%

Oc1nc(-c2ccc(C(F)(F)F)cc2)nc2c1CSCC2 [XAV939]
number of EdU+ cells per mm^2 versus NMDA injection alone (Müller glial cells (MGs); XAV939 co-injected with NMDA, 60 hours post-injection): significantly reduced
